Test results published in patent publication US20250325526A1, “USE OF TETRAHYDRONAPHTHYRIDINE DERIVATIVE FOR PREPARING PRODUCT FOR IMPROVING HYPERPIGMENTATION” (SCINNOHUB PHARMACEUTICAL CO., LTD, priority 2022, published 2025).

Experiments:
Type in all cases: in vivo, SD rats
melanin granules = test: Rat melasma model: Fontana-Masson staining of melanin granules; details: for distribution of melanin granules: skin collected Day 58, tranexamic acid 5 mg/mL; for melanin granules in the skin tissue: skin collected Day 58, vs model group, tranexamic acid 5 mg/mL
Description: 3.3 Detection of indicators: The first day of modeling was denoted as Day 1, and the experimental period lasted for 58 days. […] Then the rats in each group were euthanized, their backs were depilated, and 0.5 g of full-thickness skin tissue from the depilated back was taken and placed into an ice bath, and normal saline was added to make a 10% tissue homogenate. The homogenate was centrifuged at 3000 r/min at room temperature for 10 min to obtain a supernatant of skin tissue homogenate. ELISA was carried out to detect the expression of endothelin-1 in the supernatant of skin tissue homogenate. The skin of the modeling area on the back of rats was taken and immersed in 10% neutral formaldehyde for fixation at room temperature for 4 days. Four days later (Day 62), paraffin embedding and sectioning were performed to obtain paraffin sections of skin. The HE staining was performed to observe the pathological changes of the skin tissues of rats in each group. Staining method: The dried paraffin sections were conventionally dewaxed with xylene, hydrated with descending gradient ethanol, and washed with distilled water; the nuclei were stained with hematoxylin for 2 minutes, differentiated with hydrochloric acid and alcohol for a few seconds, and washed with water to return to blue; the sections were stained with eosin stain for 1 minute, and the residual stain was washed with water; the sections were dehydrated and dried with gradient alcohol, transparentized with xylene, and blocked with neutral gum, then observed under microscope. The epidermal hyperplasia of the skin tissue sample sections, arrangement of basal cells, presence or absence of inflammatory cell infiltration in the dermis, and changes in the number of capillaries in all groups were observed according to the evaluation indexes. Fontana-Masson staining was performed to observe the skin pigmentation of the rats. […] An immunohistochemistrical assay was performed to detect the expression of tyrosinase in the skin in each group.

tyrosinase = test: Rat melasma model: immunohistochemical staining of tyrosinase in skin; details: for tyrosinase positive rate in the skin tissues: immunohistochemistry, skin collected Day 58, vs model group, P<0.001; for tyrosinase expression in the skin tissues: vs model group, P<0.01
Description: (§1) 3.1 Modeling: Before the experiment, on Day 0, SD rats (purchased from Beijing Vital River Experimental Animal Technology Co., Ltd., SPF grade, female, 7-8 weeks old, weighing 200±20 g) were randomly grouped and numbered. The hairs on the backs of animals in each group were shaved using an electric shaver, and the short hairs on the skin were removed with a depilatory cream to fully expose the back skin. The hair removal area was slightly larger than the actual modeling area (5 cm×5 cm). Each rat was depilated once every 2-3 days to ensure that the back skin was fully exposed. On the next day (Day 1), rats in each group were weighed, and the weights were recorded when the electronic scale reading was stable. A progesterone injection was injected intramuscularly at the base of the rat's thigh (alternately between the thighs on both sides), with a drug concentration of 20 mg/mL and an injection dose of 25 mg/kg, once a day. After the intramuscular injection, the rat's back skin was irradiated with ultraviolet light at a wavelength of 280-320 nm. The light source was about 30 cm away from the rat's back skin, and the irradiation time lasted for 60 minutes each time, for a total of 4 weeks.
The injection volume was 0.05 mL/cm^2, 5 days each time, and the administration lasted for 30 days continuously. The animals in the control group (only depilated, without modeling) and the model group were given the solvent.
3.3 Detection of indicators: The first day of modeling was denoted as Day 1, and the experimental period lasted for 58 days. After the end of the experiment (Day 58), 1 hour after the last administration, the skin of the modeling area of the rats in each group was photographed for scoring of apparent indexes (scoring criteria was provided in Table 1). Then the rats in each group were euthanized, their backs were depilated, and 0.5 g of full-thickness skin tissue from the depilated back was taken and placed into an ice bath, and normal saline was added to make a 10% tissue homogenate. The homogenate was centrifuged at 3000 r/min at room temperature for 10 min to obtain a supernatant of skin tissue homogenate. ELISA was carried out to detect the expression of endothelin-1 in the supernatant of skin tissue homogenate. The skin of the modeling area on the back of rats was taken and immersed in 10% neutral formaldehyde for fixation at room temperature for 4 days. Four days later (Day 62), paraffin embedding and sectioning were performed to obtain paraffin sections of skin. The HE staining was performed to observe the pathological changes of the skin tissues of rats in each group. […]

rat models of melasma [1] = test: Rat melasma model: HE staining of skin tissues; details: vs model group, tranexamic acid 5 mg/mL, compounds under test 5 mg/mL and 1.5 mg/mL
Description: as §1
(§2) The injection volume was 0.05 mL/cm^2, 5 days each time, and the administration lasted for 30 days continuously. […]

rat models of melasma [2] = test: Rat melasma model (UVB irradiation + progesterone): apparent indexes, lesion color and area; details: Day 58, vs model group, P<0.05; local injection; tranexamic acid 5 mg/mL; compounds under test 5 mg/mL and 1.5 mg/mL
Description: as §1, §2

endothelin-1 = test: Rat melasma model: ELISA of ET-1 in supernatant of skin tissue homogenate; details: Day 58, vs model group, P<0.01, tranexamic acid 5 mg/mL, compounds under test 5 mg/mL and 1.5 mg/mL
Description: as §1, §2

| SMILES | distribution of melanin granules (melanin granules) | melanin granules in the skin tissue (melanin granules) | tyrosinase positive rate in the skin tissues (tyrosinase) | tyrosinase expression in the skin tissues (tyrosinase; 1.5 mg/mL group) | tyrosinase expression in the skin tissues (tyrosinase; 5 mg/mL group) | inflammatory cell infiltration (rat models of melasma [1]) | thickness of the basal layer and stratum spinosum of the epidermal tissues (rat models of melasma [1]) | color of the lesion areas (rat models of melasma [2]) | lesion area (rat models of melasma [2]) | ET-1 content in the skin tissue homogenate (endothelin-1) |
| --- | --- | --- | --- | --- | --- | --- | --- | --- | --- | --- |
| Cl.O=S(=O)(O)c1ccc2c(n1)CC(CCCc1ccccc1)NC2 (centres unmarked) [compound under test 3, 7-(3-phenylpropyl)-5,6,7,8-tetrahydro-1,6-naphthyridine-2-sulfonic acid hydrochloride] | distributed discontinuously only in the basal layer | significantly reduced | significantly reduced |  |  |  |  |  |  |  |
| Cl.O=C(O)c1ccc2c(n1)CCNC2 [compound under test 1, 5,6,7,8-tetrahydro-1,6-naphthyridine-2-carboxylic acid hydrochloride] | distributed discontinuously only in the basal layer | significantly reduced | significantly reduced |  |  |  |  |  |  |  |
| Cl.O=P(O)(O)c1ccc2c(n1)CCNC2 [compound under test 2, (5,6,7,8-tetrahydro-1,6-naphthyridin-2-yl)phosphonic acid hydrochloride] |  |  |  | significantly different from those in the model group | significantly different from those in the model group |  |  |  |  |  |
| NC[C@H]1CC[C@H](C(=O)O)CC1 [tranexamic acid, Tranexamic acid] |  | reduced |  |  |  | improved | significantly reduced | significantly lighter | significantly reduced | significantly reduced |
